Results on 30 compounds are retold here after US11834448B2, “2-amino-quinoline derivatives” (BIRDIE BIOPHARMACEUTICALS, INC., priority 2017, dated 2023).

Assay [1] concerns Human PBMCs. Briefly: Cytokine production in PBMCs: human IFN-α by ELISA. On the set-up: key: ″+″ means that there was production of IFNa or IL-6 on PBMC; ″−″means that noproduction of IFNa or IL-6 on PBMC was detected. Format: cell-based. The conditions noted are these: compounds tested at concentration of 10 uM; human PBMCs cultured 20-22 hours; supernatant ELISA. As to the method:
(§1) The compound functionality was tested for some of the compounds prepared by stimulation and determination of cytokine production in PBMCs.
(§2) Human PBMCs were prepared from buffy coat obtained from healthy volunteer donor by Ficoll centrifugation and were adjusted to the final cell concentration to 1×10^6 cells/mL.
(§3) For evaluation of compound activities, 1×10^5 PBMCs were plated in a 96-well plate in 100 μl of RPMI 1640 complete medium (cat no. 31800-022, GIBCO by Life Technologies, Grand Island, NY, USA) supplemented with 10% fetal bovine serum, the tested compound was first dissolved in DMSO and further diluted in PBS and RPMI 1640 medium to the final concentration of […] (corresponding to 6.28 μg/mL), then 3-fold serially dilution was made in a 96-well round-bottom plate. 100 μl diluted compound was added to the same volume of 1×10^5 PBMCs plate and cultured for 20-22 hours at 37° C. in a humidified atmosphere of 5% CO2. The supernatant was collected for human IFN-α, IL12(p70) and IL-6 analysis by ELISA assay according to the manufacturer's instructions (Mabtech AB, Sweden). Resiquimod was used as a positive control.
Background: An ELISA detects its analyte on a solid surface through an enzyme-linked reagent.

Assay [2] relates to Human PBMCs. Kind of assay: Cytokine production in PBMCs: human IL-6 by ELISA. On the set-up: key: ″+″ means that there was production of IFNa or IL-6 on PBMC; ″−″means that noproduction of IFNa or IL-6 on PBMC was detected. Format: cell-based. The conditions noted are these: compounds tested at concentration of 10 uM; human PBMCs cultured 20-22 hours; supernatant ELISA. The protocol:
as §1, §2, §3

Turning to `CCOCc1nc2c(N)nc3cccc(OC)c3c2n1CC(C)(C)O` [Compound 1, 1-(4-amino-2-(ethoxymethyl)-9-methoxy-1H-imidazo[4,5-c]quinolin-1-yl)-2-methylpropan-2-ol], in the assay on Human PBMCs [1], the “Production of IFNa on PBMC” value is recorded as “+”. Besides, the “Production of IL−6 on PBMC” value in the assay on Human PBMCs [2] was “+”. Consider `CCOCc1nc2c(N)nc3cccc(OC)c3c2n1CC(C)C` [Compound 2, 2-(ethoxymethyl)-1-isobutyl-9-methoxy-1H-imidazo[4,5-c]quinolin-4-amine], for which the “Production of IFNa on PBMC” value in the assay with Human PBMCs [1] is “+”. The “Production of IL−6 on PBMC” value with Human PBMCs [2] was “+”. `COCCc1nc2c(N)nc3cccc(OC)c3c2n1CC(C)(C)O` [Compound 3, 1-(4-amino-9-methoxy-2-(2-methoxyethyl)-1H-imidazo[4,5-c]quinolin-1-yl)-2-methylpropan-2-ol]: in the assay with Human PBMCs [1], the “Production of IFNa on PBMC” value was “−”. Further, the “Production of IL−6 on PBMC” value with Human PBMCs [2] is recorded as “−”. As for `COc1cccc2nc(N)c3nc(CCO)n(CC(C)(C)O)c3c12` [Compound 4, 1-(4-amino-2-(2-hydroxyethyl)-9-methoxy-1H-imidazo[4,5-c]quinolin-1-yl)-2-methylpropan-2-ol], the “Production of IFNa on PBMC” value in the assay on Human PBMCs [1] is given as “−”. The “Production of IL−6 on PBMC” value in the assay with Human PBMCs [2] was “−”. Regarding `CCOCc1nc2c(N)nc3cccc(OCCC(C)(C)O)c3c2[nH]1` [Compound 5, 4-((4-amino-2-(ethoxymethyl)-1H-imidazo[4,5-c]quinolin-9-yl)oxy)-2-methylbutan-2-ol], in the assay with Human PBMCs [1], the “Production of IFNa on PBMC” value is given as “+”. Also, the “Production of IL−6 on PBMC” value with Human PBMCs [2] is “+”.

Take `CCOCc1nc2c(N)nc3cccc(OCCC(C)C)c3c2[nH]1` [Compound 6, 2-(ethoxymethyl)-9-(isopentyloxy)-1H-imidazo[4,5-c]quinolin-4-amine]: the “Production of IL−6 on PBMC” value in the assay with Human PBMCs [2] is recorded as “+”. Same read-out and setting: then `CCOCc1nc2c(N)nc3cccc(OCCC(C)O)c3c2[nH]1` (centres unmarked) [Compound 7, 4-((4-amino-2-(ethoxymethyl)-1H-imidazo[4,5-c]quinolin-9-yl)oxy)butan-2-ol], with “+”. Take `CCOCc1nc2c(N)nc3cccc(OCC(C)O)c3c2[nH]1` (centres unmarked) [Compound 8, 1-((4-amino-2-(ethoxymethyl)-1H-imidazo[4,5-c]quinolin-9-yl)oxy)propan-2-ol]: the “Production of IFNa on PBMC” value in the assay with Human PBMCs [1] is given as “+”. Also, the “Production of IL−6 on PBMC” value with Human PBMCs [2] was “+”. Take `COCCc1nc2c(N)nc3cccc(OCCC(C)(C)O)c3c2[nH]1` [Compound 9, 4-((4-amino-2-(2-methoxyethyl)-1H-imidazo[4,5-c]quinolin-9-yl)oxy)-2-methylbutan-2-ol]: the “Production of IL−6 on PBMC” value in the assay on Human PBMCs [2] is recorded as “+”. Still for that read-out and setting: then `CCOCc1nc2c(N)nc3cccc(OCCC(C)(C)O)c3c2n1C` [Compound 10, 4-((4-amino-2-(ethoxymethyl)-1-methyl-1H-imidazo[4,5-c]quinolin-9-yl)oxy)-2-methylbutan-2-ol], with “+”. In the case of `CCOCc1nc2c(N)nc3cccc(OCCOC(C)C)c3c2[nH]1` [Compound 11, 2-(ethoxymethyl)-9-(2-isopropoxyethoxy)-1H-imidazo[4,5-c]quinolin-4-amine], the “Production of IFNa on PBMC” value in the assay with Human PBMCs [1] is “+”. Further, in the assay with Human PBMCs [2], the “Production of IL−6 on PBMC” value is reported as “+”. Consider `CCOCc1nc2c(N)nc3cccc(OCCC(C)(C)O)c3c2n1CC(C)C` [Compound 12, 4-((4-amino-2-(ethoxymethyl)-1-isobutyl-1H-imidazo[4,5-c]quinolin-9-yl)oxy)-2-methylbutan-2-ol], for which, in the assay on Human PBMCs [1], the “Production of IFNa on PBMC” value is listed as “+”. Further, the “Production of IL−6 on PBMC” value with Human PBMCs [2] was “+”. For `CCOCc1nc2c(N)nc3cccc(OC)c3c2n1CCOC(C)C` [Compound 13, 2-(ethoxymethyl)-1-(2-isopropoxyethyl)-9-methoxy-1H-imidazo[4,5-c]quinolin-4-amine], the “Production of IFNa on PBMC” value in the assay with Human PBMCs [1] was “+”. Moreover, in the assay on Human PBMCs [2], the “Production of IL−6 on PBMC” value is “+”. Turning to `CCOCc1nc2c(N)nc3cccc(OC)c3c2n1CCC(C)(C)O` [Compound 14, 4-(4-amino-2-(ethoxymethyl)-9-methoxy-1H-imidazo[4,5-c]quinolin-1-yl)-2-methylbutan-2-ol], the “Production of IFNa on PBMC” value in the assay on Human PBMCs [1] is on record as “+”. Further, in the assay with Human PBMCs [2], the “Production of IL−6 on PBMC” value was “+”. In the case of `CCOCc1nc2c(N)nc3cccc(OCC(C)C)c3c2[nH]1` [Compound 15, 2-(ethoxymethyl)-9-isobutoxy-1H-imidazo[4,5-c]quinolin-4-amine], in the assay on Human PBMCs [1], the “Production of IFNa on PBMC” value is “+”. Moreover, the “Production of IL−6 on PBMC” value in the assay on Human PBMCs [2] is given as “+”.

As for `CCOCc1nc2c(N)nc3cccc(OCCOC(C)C)c3c2n1C` [Compound 16, 2-(ethoxymethyl)-9-(2-isopropoxyethoxy)-1-methyl-1H-imidazo[4,5-c]quinolin-4-amine], in the assay with Human PBMCs [1], the “Production of IFNa on PBMC” value is listed as “+”. Moreover, the “Production of IL−6 on PBMC” value with Human PBMCs [2] is recorded as “+”. As to `CCOCc1nc2c(N)nc3cccc(OCCC(C)C)c3c2n1C` [Compound 17, 2-(ethoxymethyl)-9-(isopentyloxy)-1-methyl-1H-imidazo[4,5-c]quinolin-4-amine], the “Production of IFNa on PBMC” value in the assay with Human PBMCs [1] is given as “+”. For the same compound, in the assay with Human PBMCs [2], the “Production of IL−6 on PBMC” value is recorded as “+”. Consider `CCOCc1nc2c(N)nc3cccc(OCC(C)C)c3c2n1C` [Compound 18, 2-(ethoxymethyl)-9-isobutoxy-1-methyl-1H-imidazo[4,5-c]quinolin-4-amine], for which the “Production of IFNa on PBMC” value with Human PBMCs [1] was “+”. Besides, in the assay on Human PBMCs [2], the “Production of IL−6 on PBMC” value is recorded as “+”. Turning to `CCOCc1nc2c(N)nc3cccc(OCCCNS(C)(=O)=O)c3c2n1C` [Compound 19, N-(3-((4-amino-2-(ethoxymethyl)-1-methyl-1H-imidazo[4,5-c]quinolin-9-yl)oxy)propyl)methanesulfonamide], in the assay on Human PBMCs [1], the “Production of IFNa on PBMC” value is on record as “+”. For the same compound, the “Production of IL−6 on PBMC” value in the assay on Human PBMCs [2] is given as “+”. As to `CCOCc1nc2c(N)nc3cccc(OCCOCCNS(C)(=O)=O)c3c2n1C` [Compound 20, N-(2-(2-((4-amino-2-(ethoxymethyl)-1-methyl-1H-imidazo[4,5-c]quinolin-9-yl)oxy)ethoxy)ethyl)-methanesulfonamide], the “Production of IFNa on PBMC” value in the assay on Human PBMCs [1] is on record as “+”. In addition, the “Production of IL−6 on PBMC” value with Human PBMCs [2] was “+”. Take `CCOCc1nc2c(N)nc3cccc(OCCCCNS(C)(=O)=O)c3c2n1C` [Compound 22, N-(4-((4-amino-2-(ethoxymethyl)-1-methyl-1H-imidazo[4,5-c]quinolin-9-yl)oxy)butyl)methanesulfonamide]: the “Production of IFNa on PBMC” value in the assay on Human PBMCs [1] was “+”. Further, the “Production of IL−6 on PBMC” value with Human PBMCs [2] was “+”. Consider `CCCCCCCCCCCCCCCCCC(=O)NCCCOc1cccc2nc(N)c3nc(COCC)n(C)c3c12` [Compound 23, N-(3-((4-amino-2-(ethoxymethyl)-1-methyl-1H-imidazo[4,5-c]quinolin-9-yl)oxy)propyl)stearamide], for which the “Production of IFNa on PBMC” value in the assay on Human PBMCs [1] is reported as “+”. Moreover, the “Production of IL−6 on PBMC” value in the assay with Human PBMCs [2] is “+”. For `CCOCc1nc2c(N)nc3cccc(OCCCCNC(C)=O)c3c2n1C` [Compound 24, N-(4-((4-amino-2-(ethoxymethyl)-1-methyl-1H-imidazo[4,5-c]quinolin-9-yl)oxy)butyl)acetamide], the “Production of IFNa on PBMC” value in the assay with Human PBMCs [1] is recorded as “+”. In addition, the “Production of IL−6 on PBMC” value with Human PBMCs [2] is recorded as “+”.

Take `CCCCCCCCCCCCCCCCCC(=O)NCCCCOc1cccc2nc(N)c3nc(COCC)n(C)c3c12` [Compound 25, N-(4-((4-amino-2-(ethoxymethyl)-1-methyl-1H-imidazo[4,5-c]quinolin-9-yl)oxy)butyl)-stearamide]: in the assay on Human PBMCs [1], the “Production of IFNa on PBMC” value is reported as “+”. In addition, the “Production of IL−6 on PBMC” value with Human PBMCs [2] was “+”. As to `CCOCc1nc2c(N)nc3cccc4c3c2n1[C@@H](C(C)(C)O)CO4` [Compound 40, (R)-2-(10-amino-2-(ethoxymethyl)-3,4-dihydro-5-oxa-1,2a,9-triazanaphtho[2,1,8-cde]azulen-3-yl)propan-2-ol], the “Production of IL−6 on PBMC” value with Human PBMCs [2] is “−”.

Take `CCOCc1nc2c(N)nc3cccc4c3c2n1[C@H](C(C)(C)O)CO4` [Compound 41, (S)-2-(10-amino-2-(ethoxymethyl)-3,4-dihydro-5-oxa-1,2a,9-triazanaphtho[2,1,8-cde]azulen-3-yl)propan-2-ol]: the “Production of IL−6 on PBMC” value in the assay on Human PBMCs [2] was “+”. Still for that read-out and setting: the value for `CCOCc1nc2c(N)nc3cccc4c3c2n1C[C@@](C)(O)CO4` [Compound 43, (R)-2-amino-12-(ethoxymethyl)-6-methyl-6,7-dihydro-5H-3,4-(azenometheno)[1,5]oxazocino[4,3,2-de]quinolin-6-ol] was “−”.

Regarding `CCOCc1nc2c(N)nc3cccc4c3c2n1C[C@@H](O)CO4` [Compound 44, (R)-2-amino-12-(ethoxymethyl)-6,7-dihydro-5H-3,4-(azenometheno)[1,5]oxazocino[4,3,2-de]quinolin-6-ol], in the assay on Human PBMCs [2], the “Production of IL−6 on PBMC” value is on record as “−”.

Consider `CCOCc1nc2c(N)nc3cccc4c3c2n1C[C@H](O)CO4` [Compound 45, (S)-2-amino-12-(ethoxymethyl)-6,7-dihydro-5H-3,4-(azenometheno)[1,5]oxazocino-[4,3,2-de]quinolin-6-ol], for which the “Production of IL−6 on PBMC” value in the assay on Human PBMCs [2] was “+”. `CCOCc1nc2c(N)nc3cccc4c3c2n1CC(=O)CO4` [Compound 46, 2-amino-12-(ethoxymethyl)-5H-3,4-(azenometheno)[1,5]oxazocino[4,3,2-de]quinolin-6(7H)-one]: the “Production of IL−6 on PBMC” value with Human PBMCs [2] is recorded as “+”.
